Tested on: C57BL/6j mice
Assay: Wheel running jet-lag experiment, 8 h phase advance or delay
Assay type: in vivo, mouse
Method: Wheel running experiment: Male C57Bj/6 mice at 7 w old were purchased from the Nanjing Biomedical Research Institute of Nanjing University introduced from Jackson Laboratory, housed in individually wheel-running cage in a temperature- and humidity-controlled SPF facility, with ad libitum access to food and water. The animals were entrained under 12 h light/dark photoperiod for two weeks to synchronize the endogenous circadian clock of the mice to the ambient light-dark cycle, light intensity is about 50˜100 lux. After synchronization, light-dark cycles were 8-hr phase-advanced or phase-delayed. On the day of light-dark cycle was shifted advance, mice were firstly fasted at CT 3, then 15 mg/kg bw CA03, 15 and 30 mg/kg bw pro-CA03, 15 and 30 mg/kg bw pro-CA04 or DMSO were intraperitoneal injection at CT 12, and light on time (CT 0) was shifted from 7 am to 11 pm), finally re-feed and inject drug again at CT 23 of the old light-dark cycle. CA03 and pro-CA04 were firstly dissolved in DMSO to the concentration of 200 μg/μl, then dilute with saline to the final concentration of 1000 μg/ml for intraperitoneal injection. Pro-03 was firstly dissolved in DMSO to the concentration of 200 μg/μl, then dilute with 2% tween80 (in sterilized water) to the final concentration of 1000 μg/ml for intraperitoneal injection. On the day of light-dark cycle was shifted delayed, mice were firstly fasted at ZT 3, then 15 mg/kg bw CA03, 15 and 30 mg/kg bw pro-CA03, 15 and 30 mg/kg bw pro-CA04 or DMSO were intraperitoneal injection at CT 12, and light off time (CT12) was shifted from […] to 3 am), finally re-feed and inject drug again at CT 23 of the old light-dark cycle. Locomotor activity was recorded in 10-min bins wheel running (Actimetrics), and the data obtained were analysed with Clocklab software (Actimetrics). All animal experimental procedures were performed in accordance with the protocol approved by the Institutional Animal Care and Usage Committee (IACUC) of the National Institute of Biological Sciences, Beijing.
Under a standard jet-lag protocol {Yamaguchi, 2013}, wild-type C57BL/6j mice usually take ˜10 d to adapt to 8 h phase advance. […] Similarly, the drug treated mice adapt faster to the phase delay (FIG. 2D&2E).
To test whether cordycepin function in vivo, we firstly tested luciferase signal level by live imaging of Per2:LUC mice after intraperitoneal injection of 15 mg/kg cordycepin or DMSO. We found cordycepin induce more than 4 folds increase of luciferase signal in liver when compared with DMSO control (A). […] We also reconfirmed endogenous transcription rate of core clock genes by measuring the pre-mRNA with qPCR in the liver (B). We examined RRE genes (including Bmal1, Clock, Npas2, Cry1 and Nfil3), internal control genes (including Gapdh, Tbp and Actin) and E-box genes (including Per1, Per2, Dbp and Nr1d1). We designed at least 2 primers for each gene. […] Prior evaluation the jet-leg cure ability of cordycepin, we detected whether cordycepin and it's prodrug pro-CA03 can penetrate BBB. We injected cordycepin or pro-CA03 via tail vein and time course sampled CSF and analyzed cordycepin pro-CA03 level with HPLC-MASS method. […] Finally we evaluated the jet-leg cure ability of cordycepin, pro-CA03 and Pro-CA04 with mice behavioral experiment. Wild-type C57BL/6j mice typically take ˜10 days to adapt to an 8 h phase advance. […]

In the case of `Nc1ncnc2c1ncn2[C@@H]1O[C@H](CO)C[C@H]1O` [Cordycepin, 3′-deoxy-adenosine], the “adaptation time in phase-delay assay” value (DMSO 6 days) is reported as 3 days and the “adaptation time to 8 h phase advance” value (twice injection, DMSO ~10 d) is reported as 4 days.

Source: patent US12667584B2, “Adenosine analog and its use in regulating the circadian clock” (NATIONAL INSTITUTE OF BIOLOGICAL SCIENCES, BEIJING, priority 2017, dated 2026)
